Experimental data published in paper PMC4355590, “A Kinetic Study of the Main Guaco Metabolites Using Syrup Formulation and the Identification of an Alternative Route of Coumarin Metabolism in Humans” (PLoS ONE, 2015).

Key:
[1] = Initial screening of bioavailability: 60 mL of guaco syrup orally; assay type: in vivo, human; conditions: 60 mL guaco syrup (17.6 mg COU, 1.1 mg OCA, 8.9 mg KAU), up to 600 min
Experimental: All the volunteers fasted for 8 h prior to the administration of guaco syrup and blood collection. […] The anticoagulant used was tetrasodium edetate. […] The pharmacokinetic analysis was performed using a non-compartmental model, considering an extravascular administration route and using WinNonlin Professional software, version 5.3. The relationships among the areas under the curves (r areas = AUC0-t/AUC0-inf), were used to confirm the suitability of the experimental design.

[2] = Stability of stock solutions and working standard solutions; assay type: physicochemical; conditions: for Mean recovery: n = 8, ± SD
Experimental: The stability of the stock solutions (1 mg/mL of each analyte and ISs) was evaluated after 30 days of storage in a refrigerator (4°C, amber bottles). The stored solutions were diluted with acetonitrile/water (70:30 v/v) to obtain the same concentration levels as the short-term stability assay. The stability of the stock solutions was evaluated by comparing the mean recovery of the analytes and IS obtained from stored samples to the mean values obtained with freshly prepared samples, at the same concentration levels. The stability of the working standard solutions was assessed using a procedure similar to that described for stock solution stability. […]

[3] = Stability in human plasma: short-term, freeze-thaw and long-term; assay type: in vitro ADME; conditions: for Mean recovery: n = 8, ± SD
Experimental: The samples were vortexed for 2 min and then were kept at room temperature for 8 h. Afterward, the samples were spiked with 50 μL of IS solution and were vortexed (2 min) and submitted to the extraction procedures. The short-term stability was evaluated by comparing the mean recovery of the analytes and the IS obtained from stored samples with the mean values obtained with freshly prepared samples, at same concentration levels.
Freeze-thawed, post-preparative and long-term stability assay samples were prepared and evaluated similar to the short-term stability samples. However, the freeze thawing assay was assessed after undergoing three freeze-thaw cycles (one freeze-thaw cycle per day on three consecutive days) and post-preparative assay, maintaining the extracted samples for 24 hours in the Sample Manager (20°C, transparent vials). The long-term stability of human plasma stored at -40°C was assessed at the end of the study (60 days).

[4] = 8 h at room temperature, high level (Coumarin 1250.0, 7-hydroxycoumarin 750.0, o-coumaric acid 750.0, Kaurenoic acid 500.0 ng/mL)
[5] = 8 h at room temperature, high level, stored vs freshly prepared
[6] = 8 h at room temperature, low level (Coumarin 50.0, 7-hydroxycoumarin 12.5, o-coumaric acid 25.0, Kaurenoic acid 10.0 ng/mL)
[7] = 8 h at room temperature, low level, stored vs freshly prepared
[8] = 30 days at 4 °C (stock solutions), high level (1250.0, 750.0, 750.0, 500.0 ng/mL)
[9] = 30 days at 4 °C (stock solutions), low level (50.0, 12.5, 25.0, 10.0 ng/mL)
[10] = Long-term: plasma at -40°C, 60 days, high level (1250.0, 750.0, 750.0, 500.0 ng/mL)
[11] = Long-term: plasma at -40°C, 60 days, low level (50.0, 12.5, 25.0, 10.0 ng/mL)
[12] = Short-term: plasma at room temperature for 8 h, high level (1250.0, 750.0, 750.0, 500.0 ng/mL)
[13] = Short-term: plasma at room temperature for 8 h, low level (50.0, 12.5, 25.0, 10.0 ng/mL)
[14] = three freeze–thaw cycles, plasma, high level (1250.0, 750.0, 750.0, 500.0 ng/mL)
[15] = three freeze–thaw cycles, plasma, low level (50.0, 12.5, 25.0, 10.0 ng/mL)

| SMILES | plasma levels after guaco syrup without spiking [1] | Mean recovery [2, 4] | RE [2, 5] | Mean recovery [2, 6] | RE [2, 7] | Mean recovery [2, 8] | Mean recovery [2, 9] | RE ([2]; 30 days at 4 °C, high level) | RE ([2]; 30 days at 4 °C, low level) | Mean recovery [3, 10] | Mean recovery [3, 11] | RE ([3]; Long-term, low level) | Mean recovery [3, 12] | Mean recovery [3, 13] | RE ([3]; Short-term, high level) | RE ([3]; Short-term, low level) | RE ([3]; freeze–thaw cycles, high level) | RE ([3]; freeze–thaw cycles, low level) | Mean recovery [3, 14] | Mean recovery [3, 15] | further results |
| --- | --- | --- | --- | --- | --- | --- | --- | --- | --- | --- | --- | --- | --- | --- | --- | --- | --- | --- | --- | --- | --- |
| O=c1ccc2ccc(O)cc2o1 [7-HCOU, 7-hydroxycoumarin] | did not provide sufficient levels | 757.9 ± 5.6 ng/mL | 1.06% | 11.6 ± 0.6 ng/mL | -7.41% | 791.8 ± 60.5 ng/mL | 11.4 ± 0.9 ng/mL | 5.57% | -8.02% | 674.4 ± 69.7 ng/mL | 11.7 ± 1.1 ng/mL | -6.19% | 738.1 ± 8.4 ng/mL | 11.7 ± 0.6 ng/mL | -1.59% | -6.24% | -4.69% | -7.29% | 714.8 ± 24.9 ng/mL | 11.6 ± 0.6 ng/mL | RE ([3]; Long-term, high level): -10.08% |
| O=c1ccc2ccccc2o1 [COU, 1,2 benzopyrone] | did not provide sufficient levels | 1293.1 ± 30.5 ng/mL | 3.45% | 54.5 ± 3.2 ng/mL | 8.94% | 1173.4 ± 67.9 ng/mL | 56.1 ± 2.3 ng/mL | -6.13% | 12.27% | 1265.7 ± 99.2 ng/mL | 45.1 ± 3.6 ng/mL | -9.71% | 1205.5 ± 31.5 ng/mL | 52.4 ± 1.7 ng/mL | -3.56% | 4.81% | 4.61% | 7.62% | 1307.7 ± 40.7 ng/mL | 53.8 ± 2.7 ng/mL | RE ([3]; Long-term, high level): 1.26% |
| O=C(O)/C=C/c1ccccc1O [OCA, o-coumaric acid] | did not provide sufficient levels | 718.0 ± 48.0 ng/mL | -4.26% | 22.6 ± 1.3 ng/mL | -9.44% | 640.8 ± 45.6 ng/mL | 22.8 ± 1.2 ng/mL | -14.55% | -8.89% | 606.3 ± 26.8 ng/mL | 22.5 ± 0.4 ng/mL | -10.20% | 750.6 ± 29.0 ng/mL | 25.2 ± 0.4 ng/mL | 0.07% | 0.79% | -2.79% | -8.32% | 729.0 ± 41.7 ng/mL | 22.9 ± 1.1 ng/mL | – |
